According to the supplement of paper PMC11061612:

Tests used:
Experiment in all cases: combination Emax (second highest fraction inhibited in the dose matrix, 72 h); higher = more inhibition; extreme values may be limits of the assay
[1] = tested on: BL-41 (Burkitt's Lymphoma)
How it was run: (§1)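 After 24 hours at 37°C and 5% CO2 in 1536-well plates, cells in DMEM/F12 or RPMI plus 10% FBS received two-drug dose matrices for 72 hours. Viability came from CellTiter-Glo 2.0 luminescence and was scaled as inhibition, anchored at 0 by vehicle wells and at 1 by blank wells. Combination Emax is taken as the second-highest inhibition in the matrix, and Bliss excess as the observed combination effect less EA + EB − EA·EB, with EA and EB the single-agent effects.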

[2] = tested on: COLO-678 (Colorectal Carcinoma)
How it was run: as §1

[3] = tested on: DND-41 (T-Lymphoblastic Leukemia)
How it was run: as §1

[4] = tested on: DiFi (Colorectal Carcinoma)
How it was run: as §1

ES1 (Ewing's Sarcoma) = tested on: ES1 (Ewing's Sarcoma)
How it was run: as §1

[5] = tested on: EVSA-T (Breast Carcinoma)
How it was run: as §1

[6] = tested on: KARPAS-45 (T-Lymphoblastic Leukemia)
How it was run: as §1

[7] = tested on: KM12 (Colorectal Carcinoma)
How it was run: as §1

[8] = tested on: KYSE-180 (Esophageal Squamous Cell Carcinoma)
How it was run: as §1

[9] = tested on: L-540 (Hodgkin's Lymphoma)
How it was run: as §1

LN-18 (Glioblastoma) = tested on: LN-18 (Glioblastoma)
How it was run: as §1

MEL-JUSO (Melanoma) = tested on: MEL-JUSO (Melanoma)
How it was run: as §1

[10] = tested on: MS751 (Cervical Carcinoma)
How it was run: as §1

[11] = tested on: NCI-H847 (Small Cell Lung Carcinoma)
How it was run: as §1

[12] = tested on: SR (Other Blood Carcinomas)
How it was run: as §1

[13] = tested on: SU-DHL-8 (B-Cell Non-Hodgkin's Lymphoma)
How it was run: as §1

TC-71 (Ewing's Sarcoma) = tested on: TC-71 (Ewing's Sarcoma)
How it was run: as §1

[14] = tested on: TE-6 (Esophageal Squamous Cell Carcinoma)
How it was run: as §1

WIL2-NS (Non-Cancerous) = tested on: WIL2-NS (Non-Cancerous)
How it was run: as §1

WM-115 (Melanoma) = tested on: WM-115 (Melanoma)
How it was run: as §1

SMILES | combination Emax [1] | combination Emax [2] | combination Emax [3] | combination Emax [4] | combination Emax (ES1 (Ewing's Sarcoma)) | combination Emax [5] | combination Emax [6] | combination Emax [7] | combination Emax [8] | combination Emax [9] | combination Emax (LN-18 (Glioblastoma)) | combination Emax (MEL-JUSO (Melanoma)) | combination Emax [10] | combination Emax [11] | combination Emax [12] | combination Emax [13] | combination Emax (TC-71 (Ewing's Sarcoma)) | combination Emax [14] | combination Emax (WIL2-NS (Non-Cancerous)) | combination Emax (WM-115 (Melanoma))
Cc1c2c(nn1C)CSCc1cc(n(C)n1)CSc1cc(c3ccccc3c1)OCCCc1c(C(=O)O)n(C)c3c-2c(Cl)ccc13 [AZD5991] + Cn1cnc2c(F)c(Nc3ccc(Br)cc3Cl)c(C(=O)NOCCO)cc21 [Selumetinib] (first compound max 1 µM, 7x7, partner max 3 µM) | 1 | 0.423 | 0.181 | 0.875 | 0.777 | 1 | 0.922 | 0.638 | 0.848 | 1 | 0.315 | 0.669 | 0.896 | 0.863 | 0.952 | 0.655 | 0.578 | 0.62 | 0.236 | 0.68
CN(C)CCCOc1ccc(-c2ccc3ncc4c(c3c2)n(C2CCOCC2)c(=O)n4C)cn1 [AZD0156] + CCN(CCO)CCCOc1ccc2c(Nc3cc(CC(=O)Nc4cccc(F)c4)[nH]n3)ncnc2c1 [AZD2811] (first compound max 1 µM, 7x7, partner max 1 µM) | 0.744 | 0.144 | 0.206 | 0.416 | 0.69 | 0.269 | 0.919 | 0.0745 | 0.0693 | 0.366 | 0.33 | 0.16 | 0.326 | 0.949 | 0.849 | 0.253 | 0.837 | 0.236 | 0.201 | 0.183
CN(CCO)CC[C@H](CSc1ccccc1)Nc1ccc(S(=O)(=O)NC(=O)c2ccc(N3CCC([C@@H](O)c4ccccc4-c4ccc(Cl)cc4)CC3)cc2)cc1S(=O)(=O)C(F)(F)F [AZD4320] + C1CN(CCC1(C(=O)N[C@@H](CCO)C2=CC=C(C=C2)Cl)N)C3=NC=NC4=C3C=CN4 [Capivasertib] (first compound max 1 µM, 7x7, partner max 3 µM) | 0.215 | 0.0393 | 1 | 0.804 | 0.246 | 0.924 | 0.987 | 0.565 | 0.32 | 0.279 | 0.298 | 0.139 | 0.132 | 1 | 0.49 | 0.916 | 0.544 | 0.633 | 0.535 | 0.829
CC1(C)CCC(CN2CCN(c3ccc(C(=O)NS(=O)(=O)c4ccc(NCC5CCOCC5)c([N+](=O)[O-])c4)c(Oc4cnc5[nH]ccc5c4)c3)CC2)=C(c2ccc(Cl)cc2)C1 [Venetoclax] + Cn1cnc2c(F)c(Nc3ccc(Br)cc3Cl)c(C(=O)NOCCO)cc21 [Selumetinib] (first compound max 1 µM, 7x7, partner max 3 µM) | 0.196 | 0.485 | 0.891 | 0.351 | 0.338 | 0.182 | 0.317 | 0.555 | 0.0548 | 0.493 | 0.17 | 0.305 | 0.191 | 0.168 | 0.791 | 0.31 | 0.291 | 0.319 | 0.87 | 0.42
CC1(C)CCC(CN2CCN(c3ccc(C(=O)NS(=O)(=O)c4ccc(NCC5CCOCC5)c([N+](=O)[O-])c4)c(Oc4cnc5[nH]ccc5c4)c3)CC2)=C(c2ccc(Cl)cc2)C1 [Venetoclax] + CCN(CCO)CCCOc1ccc2c(Nc3cc(CC(=O)Nc4cccc(F)c4)[nH]n3)ncnc2c1 [AZD2811] (first compound max 1 µM, 7x7, partner max 1 µM) | 0.604 | 0.245 | 0.94 | 0.486 | 0.759 | 0.427 | 0.96 | 0.17 | 0.233 | 0.723 | 0.488 | 0.287 | 0.424 | 1 | 0.946 | 0.414 | 0.88 | 0.26 | 0.857 | 0.211
CN(C)CCCOc1ccc(-c2ccc3ncc4c(c3c2)n(C2CCOCC2)c(=O)n4C)cn1 [AZD0156] + C[C@@H]1COCCN1C2=NC(=NC(=C2)C3(CC3)[S@](=N)(=O)C)C4=C5C=CNC5=NC=C4 [AZD6738] (first compound max 1 µM, 7x7, partner max 10 µM) | 1 | 0.123 | 0.844 | 0.829 | 0.956 | 0.495 | 0.857 | 0.696 | 0.915 | 0.93 | 0.725 | 0.525 | 0.271 | 0.956 | 0.946 | 0.892 | 0.952 | 0.636 | 0.988 | 0.488
COc1cc2c(cc1OCCCCCOc1cc3c(cc1OC)C(=O)N1C=C(C)C[C@H]1C=N3)N=C[C@@H]1CC(C)=CN1C2=O [SG3199] + O=C(c1cc(Cc2n[nH]c(=O)c3ccccc23)ccc1F)N1CCN(C(=O)C2CC2)CC1 [Olaparib] (first compound max 0.001 µM, 7x7, partner max 10 µM) | 0.107 | 0.13 | 0.216 | 0.107 | 0.689 | 0.276 | 0.0966 | 0.113 | 0.0586 | 0.32 | 0.132 | 0.0923 | 0.176 | 0.509 | 0.445 | 0.55 | 0.518 | 0.117 | 0.247 | 0.206
CN(C)CCCOc1ccc(-c2ccc3ncc4c(c3c2)n(C2CCOCC2)c(=O)n4C)cn1 [AZD0156] + C=CCn1c(=O)c2cnc(Nc3ccc(N4CCN(C)CC4)cc3)nc2n1-c1cccc(C(C)(C)O)n1 [AZD1775] (first compound max 1 µM, partner max 1 µM) | 1 | 0.226 | 0.848 | 0.637 | 0.682 | 0.221 | 0.854 | 0.731 | 0.749 | 0.954 | 0.291 | 0.486 | 0.155 | 0.971 | 0.99 | 0.888 | 0.452 | 0.232 | 0.976 | 0.254
CN(C)CCCOc1ccc(-c2ccc3ncc4c(c3c2)n(C2CCOCC2)c(=O)n4C)cn1 [AZD0156] + O=C(c1cc(Cc2n[nH]c(=O)c3ccccc23)ccc1F)N1CCN(C(=O)C2CC2)CC1 [Olaparib] (first compound max 3 µM, partner max 3 µM) | 0.366 | 0.216 | 0.372 | 0.223 | 0.834 | 0.234 | 0.238 | 0.36 | 0.233 | 0.406 | 0.203 | 0.115 | 0.232 | 0.64 | 0.675 | 0.266 | 0.804 | 0.417 | 0.6 | 0.356
CC1(C)CCC(CN2CCN(c3ccc(C(=O)NS(=O)(=O)c4ccc(NCC5CCOCC5)c([N+](=O)[O-])c4)c(Oc4cnc5[nH]ccc5c4)c3)CC2)=C(c2ccc(Cl)cc2)C1 [Venetoclax] + CN(C)CCCOc1ccc(-c2ccc3ncc4c(c3c2)n(C2CCOCC2)c(=O)n4C)cn1 [AZD0156] (first compound max 1 µM, 7x7, partner max 1 µM) | 0.163 | 0.187 | 0.893 | 0.288 | 0.82 | 0.213 | 0.478 | 0.17 | 0.155 | 0.886 | 0.329 | 0.233 | 0.198 | 0.378 | 0.907 | 0.334 | 0.294 | 0.289 | 0.804 | 0.179
COc1cccc(OCCCN)c1-c1cc(Nc2cnc(C#N)cn2)n[nH]1 [Prexasertib] + C[C@@H]1COCCN1C2=NC(=NC(=C2)C3(CC3)[S@](=N)(=O)C)C4=C5C=CNC5=NC=C4 [AZD6738] (first compound max 1 µM, 7x7, partner max 10 µM) | 1 | 0.136 | 0.891 | 0.881 | 1 | 0.343 | 0.979 | 0.767 | 0.989 | 0.963 | 0.797 | 0.695 | 0.383 | 1 | 1 | 0.964 | 0.962 | 0.695 | 1 | 0.59
CN(CCO)CC[C@H](CSc1ccccc1)Nc1ccc(S(=O)(=O)NC(=O)c2ccc(N3CCC([C@@H](O)c4ccccc4-c4ccc(Cl)cc4)CC3)cc2)cc1S(=O)(=O)C(F)(F)F [AZD4320] + Cc1cc2ncnn2cc1Nc1ncc2c(n1)n(C1CCOCC1)c(=O)n2C [AZD7648] (first compound max 1 µM, 7x7, partner max 10 µM) | 0.203 | 0.105 | 1 | 0.784 | 0.355 | 0.191 | 0.991 | 0.226 | 0.0754 | 0.502 | 0.204 | 0.181 | 0.146 | 1 | 0.393 | 0.942 | 0.593 | 0.524 | 0.335 | 0.489
